Patent publication US7030096B1, “Method of enhancing relaxation of penile smooth muscle by introduction of DNA encoding maxi-K potassium channel protein” (Albert Einstein College of Medicine of Yeshiva University, priority 1997, dated 2006)
Where two headings read alike, the source gives them in different places. Each block holds one compound with its values, some of them ahead of it. Where no end group is shown, it is not given here.

Key:
KATP channel = settings: Table 4; cited from earlier work
corporal smooth muscle = settings: cited from earlier work
monkeys and humans = settings: cited from earlier work
[1] = system: precontracted corporal tissue strips; settings: from both animals and humans; cited from earlier work
L-type Ca^2+ channel = settings: cited from earlier work
maxi-K channel [2] = target: T1, maxi-K channel (Homo sapiens, UniProt Q12791); format: cell-based
T1 sequence (Q12791 whole entry): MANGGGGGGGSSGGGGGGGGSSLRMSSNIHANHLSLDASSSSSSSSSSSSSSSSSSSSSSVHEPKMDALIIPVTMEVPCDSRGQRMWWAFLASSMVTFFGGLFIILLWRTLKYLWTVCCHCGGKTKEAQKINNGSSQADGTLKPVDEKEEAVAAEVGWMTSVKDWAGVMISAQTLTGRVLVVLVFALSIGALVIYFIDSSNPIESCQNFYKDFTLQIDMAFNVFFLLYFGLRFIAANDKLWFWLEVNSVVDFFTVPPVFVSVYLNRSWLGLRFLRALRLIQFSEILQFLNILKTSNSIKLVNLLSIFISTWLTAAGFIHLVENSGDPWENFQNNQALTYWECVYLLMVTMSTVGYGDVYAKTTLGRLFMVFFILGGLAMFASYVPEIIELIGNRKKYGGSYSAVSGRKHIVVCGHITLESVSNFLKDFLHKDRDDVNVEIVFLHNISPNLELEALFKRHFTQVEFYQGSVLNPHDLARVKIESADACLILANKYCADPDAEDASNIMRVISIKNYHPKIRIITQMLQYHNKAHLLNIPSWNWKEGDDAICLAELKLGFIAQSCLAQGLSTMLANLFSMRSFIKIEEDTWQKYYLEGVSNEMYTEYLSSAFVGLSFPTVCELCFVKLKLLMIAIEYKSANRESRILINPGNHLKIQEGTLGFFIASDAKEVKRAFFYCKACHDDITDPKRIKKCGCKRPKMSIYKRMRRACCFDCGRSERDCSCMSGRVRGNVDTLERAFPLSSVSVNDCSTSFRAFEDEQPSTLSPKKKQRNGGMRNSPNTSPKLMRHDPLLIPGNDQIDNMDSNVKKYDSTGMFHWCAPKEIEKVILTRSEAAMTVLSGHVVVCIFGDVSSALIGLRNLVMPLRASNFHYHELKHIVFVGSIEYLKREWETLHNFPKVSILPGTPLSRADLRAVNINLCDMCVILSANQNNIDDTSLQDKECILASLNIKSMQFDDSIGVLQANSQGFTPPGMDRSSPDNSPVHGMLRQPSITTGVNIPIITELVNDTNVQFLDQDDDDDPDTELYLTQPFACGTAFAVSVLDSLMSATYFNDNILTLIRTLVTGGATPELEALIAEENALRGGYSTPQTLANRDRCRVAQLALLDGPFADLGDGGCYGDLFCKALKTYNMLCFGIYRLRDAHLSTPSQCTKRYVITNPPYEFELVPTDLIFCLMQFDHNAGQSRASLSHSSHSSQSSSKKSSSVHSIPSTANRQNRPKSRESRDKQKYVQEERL

[3] = system: isolated human corporal tissue strips; settings: cited from earlier work
[4] = system: isolated human corporal tissue strips; format: cell-based
KCa channel = KCa channel (Homo sapiens, UniProt Q12791); settings: Table 4; cited from earlier work
Chain of KCa channel (Q12791 whole entry): as above

[5] = system: cultured human corporal smooth muscle cells; test: Resting and ET-1-induced intracellular calcium in fura-2-loaded cultured cells; format: cell-based; settings: transfection with hSlo cDNA or preincubation with PGE1 (500 nM)
Experimental: Urol., 155:[…], 1996). This decrease is indistinguishable from the decrease seen in the absence of extracellular Ca^2+ (in 2 mM EGTA), or when cells are preincubated with either nifedipine (Zhao and Christ, J. Urol., 154:1571-79, 1995) or verapamil, both of which are blockers of the L-type voltage-dependent calcium channel. [table]

[6] = system: cultured human corporal smooth muscle cells; settings: preincubation with 500 nM PGE1, cited from earlier work
maxi-K channel [7] = target: T1, maxi-K channel; settings: all four recording modes; cited from earlier work

Compound: [Cl-].[K+] [KCl]
Channel Type Affected: KATP (KATP channel): KATP increases | Effect on Smooth Muscle Tone (corporal smooth muscle; Table 4): modulates increase

Compound: O=C(NCCO[N+](=O)[O-])c1cccnc1 [nicorandil]
effect when injected intracavernosally (monkeys and humans): elicit an erection | effect on precontracted corporal tissue strips [1]: relax

Compound: CC(N/C(=N\C#N)Nc1ccncc1)C(C)(C)C (stereo not shown) [pinacidil]
effect when injected intracavernosally (monkeys and humans): elicit an erection | Channel Type Affected: KATP (KATP channel): KATP increases | effect on precontracted corporal tissue strips [1]: relax | Effect on Smooth Muscle Tone (corporal smooth muscle; Table 4): decreased tone

Compound: O=[N+]([O-])OCC(CO[N+](=O)[O-])O[N+](=O)[O-] [NTG, nitroglycerine]
Channel Type Affected: L-type Ca^2+ (L-type Ca^2+ channel): decreases | Channel activity increased (maxi-K channel [2]): YES | maxi-K channel activity (attached patch recording mode) (maxi-K channel [2]): increase in maxi-K channel activity | expected percent relaxation response elicited by 100 nM nitroglycerine [3]: 50.1% | Effect on Smooth Muscle Tone (corporal smooth muscle): decreased tone | percent relaxation response elicited by 100 nM nitroglycerine [4]: 20.3%±3.2

Compound: CC1(C)Oc2ccc(C#N)cc2C(N2CCCC2=O)C1O (stereo not shown) [cromakalim]
effect when injected intracavernosally (monkeys and humans): elicit an erection | effect on precontracted corporal tissue strips [1]: relax

Compound: CC[N+](CC)(CC)CC [TEA, tetraethylammonium]
Channel Type Affected: KCa (KCa channel): KCa decreases | Effect on Smooth Muscle Tone (corporal smooth muscle): increased tone | PE-induced contraction increased [4]: YES | Relaxation response decreased [4]: YES | Resting corporal smooth muscle tone increased [4]: YES | effect on NTG-induced relaxation response (100 nM) [4]: significant attenuation

Compound: COc1ccc(Cl)cc1C(=O)NCCc1ccc(S(=O)(=O)NC(=O)NC2CCCCC2)cc1 [Glibenclamide, glibenclamide]
Channel Type Affected: KATP (KATP channel): KATP decreases | Effect on Smooth Muscle Tone (corporal smooth muscle; Table 4): increased tone

Compound: CC1(C)Oc2ccc(C#N)cc2[C@@H](N2CCCC2=O)[C@@H]1O [lemakalim]
effect when injected intracavernosally (monkeys and humans): elicit an erection | effect on precontracted corporal tissue strips [1]: relax

Compound: endothelin-1 (CSCSSLMDKECVYFCHLDIIW; ends and bridges not checked; cysteine pairing not given here; UniProt P05305 53-73, looked up) [ET-1]
Channel Type Affected: L-type Ca^2+ (L-type Ca^2+ channel; Table 4): increases | Effect on Smooth Muscle Tone (corporal smooth muscle; Table 4): increased tone

Channel activity increased (maxi-K channel [2]; 100 μM NTG or 30 nM–30 μM PGE1): YES
Compound: CCCCC[C@H](O)/C=C/[C@H]1[C@H](O)CC(=O)[C@@H]1CCCCCCC(=O)O [PGE1, prostaglandin E1]
Channel Type Affected: KCa (KCa channel): KCa increases | ET-1-induced calcium response decreased [5]: YES | Effect on Smooth Muscle Tone (corporal smooth muscle; Table 4): decreased tone | decrease in peak amplitude of the ET-1-induced (50 nM) calcium transient [6]: ≈ 40% | peak amplitude of the ET-1-induced (50 nM) calcium transient above baseline ([6]; control value 161.5±19.5 nM): 102.6 ± 9.5 nM | activity of the maxi-K channel (maxi-K channel [7]): concentration-dependent increase

Compound: CNC[C@H](O)c1cccc(O)c1 [PE, phenylephrine]
Channel Type Affected: KCa (KCa channel): KCa increases | Effect on Smooth Muscle Tone (corporal smooth muscle; Table 4): modulates increase
